Source: patent US20090069565A1, “NEW INDOLE DERIVATIVES AS FACTOR XA INHIBITORS” (priority 2001, published 2009)
Like-named read-outs stand apart in the source and are kept apart here.

Target: human factor Xa (Homo sapiens, UniProt P00742)
Assay: Factor Xa assay (chromogenic, substrate S-2765);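 also: purified enzyme preincubated with inhibitor for 10 min before substrate addition, final reaction volume 100 µl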
Type: biochemical
[1] = inhibition constant for factor Xa, purified enzyme 0.5 nM, substrate S-2765 140 μM, 25° C., pH 7.8, Ki=IC50/{1+(substrate concentration/Km)}, read-out: Ki(FXa)

Chain of human factor Xa (P00742 235-488 limits assumed): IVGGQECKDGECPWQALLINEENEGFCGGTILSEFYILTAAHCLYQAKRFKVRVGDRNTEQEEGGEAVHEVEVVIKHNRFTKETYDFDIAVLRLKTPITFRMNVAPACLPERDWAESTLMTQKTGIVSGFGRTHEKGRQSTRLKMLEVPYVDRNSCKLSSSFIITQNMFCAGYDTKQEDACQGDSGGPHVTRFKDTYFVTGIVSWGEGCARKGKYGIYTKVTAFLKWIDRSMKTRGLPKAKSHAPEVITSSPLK
Chain of human factor Xa (P00742 41-179 partner limits assumed): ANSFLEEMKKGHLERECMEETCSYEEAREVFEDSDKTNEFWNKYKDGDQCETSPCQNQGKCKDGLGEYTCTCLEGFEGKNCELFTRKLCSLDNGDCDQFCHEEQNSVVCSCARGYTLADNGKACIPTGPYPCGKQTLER

Compound | Ki (read-out: Ki(FXa)) [µM] | Ki [1] [µM] | other results
CC(C)N1CCC(NC(=O)c2cc3c(Cl)cccc3n2Cc2cc(-c3ccc(Cl)s3)on2)CC1 [Example 182, 4-Chloro-1-[5-(5-chloro-thiophen-2-yl)-isoxazol-3-ylmethyl]-1H-indole-2-carboxylic acid (1-isopropyl-piperidin-4-yl)-amide] |  |  | Ki: 0.005 µM
CN1CCN(NC(=O)c2cc3ccccc3n2Cc2cc(-c3ccc(Cl)s3)on2)CC1 [Example 183, 1-[5-(5-Chloro-thiophen-2-yl)-isoxazol-3-ylmethyl]-1H-indole-2-carboxylic acid (4-methyl-piperazin-1-yl)-amide] | 0.076 |  | 
CCOC(=O)CN(C(=O)c1cc2cccc(C)c2n1Cc1cc(-c2ccc(Cl)s2)on1)C1CCN(C(C)C)CC1 [Example 184, [{1-[5-(5-Chloro-thiophen-2-yl)-isoxazol-3-ylmethyl]-7-methyl-1H-Indole-2-carbonyl}-(1-isopropyl-piperidin-4-yl)-amino]-acetic acid ethyl ester] | 0.013 |  | 
Cc1cccc2cc(C(=O)N(CC(=O)O)C3CCN(C(C)C)CC3)n(Cc3cc(-c4ccc(Cl)s4)on3)c12 [Example 185, [{1-[5-(5-Chloro-thiophen-2-yl)-isoxazol-3-ylmethyl]-7-methyl-1H-indole-2-carbonyl}-(1-isopropyl-piperidin-4-yl)-amino]-acetic acid] | 0.005 |  | 
CCC(CC)N1CCC(NC(=O)c2cc3ccccc3n2Cc2cc(-c3ccc(Cl)s3)on2)CC1 [Example 186, 1-[5-(5-Chloro-thiophen-2-yl)-isoxazol-3-ylmethyl]-1H-indole-2-carboxylic acid [1-(1-ethyl-propyl)-piperidin-4-yl]-amide] |  | 0.22 | 
CN1CCC(NC(=O)c2cc3ccccc3n2Cc2cc(-c3ccc(Cl)s3)on2)CC1 [Example 187, 1-[5-(5-Chloro-thiophen-2-yl)-isoxazol-3-ylmethyl]-1H-indole-2-carboxylic acid (1-methyl-piperidin-4-yl)-amide] |  | 0.04 | 
O=C(NC1CCN(CC(F)(F)F)CC1)c1cc2ccccc2n1Cc1cc(-c2ccc(Cl)s2)on1 [Example 188, 1-[5-(5-Chloro-thiophen-2-yl)-isoxazol-3-ylmethyl]-1H-indole-2-carboxylic acid [1-(2,2,2-trifluoro-ethyl)-piperidin-4-yl]-amide] | 1.03 |  | 
O=CN1CCC(NC(=O)c2cc3ccccc3n2Cc2cc(-c3ccc(Cl)s3)on2)CC1 [Example 189, 1-[5-(5-Chloro-thiophen-2-yl)-isoxazol-3-ylmethyl]-1H-indole-2-carboxylic acid (1-formyl-piperidin-4-yl)-amide] | 2.02 |  | 
NC(=O)N1CCC(NC(=O)c2cc3ccccc3n2Cc2cc(-c3ccc(Cl)s3)on2)CC1 [Example 190, 1-[5-(5-Chloro-thiophen-2-yl)-isoxazol-3-ylmethyl]-1H-indole-2-carboxylic acid (1-carbamoyl-piperidin-4-yl)-amide] |  | 1.07 | 
CS(=O)(=O)N1CCC(NC(=O)c2cc3ccccc3n2Cc2cc(-c3ccc(Cl)s3)on2)CC1 [Example 191, 1-[5-(5-Chloro-thiophen-2-yl)-isoxazol-3-ylmethyl]-1H-indole-2-carboxylic acid (1-methanesulfonyl-piperidin-4-yl)-amide] | 0.136 |  | 
CC(=O)N1CCC(NC(=O)c2cc3ccccc3n2Cc2cc(-c3ccc(Cl)s3)on2)CC1 [Example 192, 1-[5-(5-Chloro-thiophen-2-yl)-isoxazol-3-ylmethyl]-1H-indole-2-carboxylic acid (1-acetyl-piperidin-4-yl)-amide] |  | 0.763 | 
O=C(NC1CCN(c2ccnc(Cl)n2)CC1)c1cc2ccccc2n1Cc1cc(-c2ccc(Cl)s2)on1 [Example 193, 1-[5-(5-Chloro-thiophen-2-yl)-isoxazol-3-ylmethyl]-1H-indole-2-carboxylic acid [1-(2-chloro-pyrimidin-4-yl)-piperidin-4-yl]-amide] | 0.199 |  | 
O=C(NC1CCN(c2ccncn2)CC1)c1cc2ccccc2n1Cc1cc(-c2ccc(Cl)s2)on1 [Example 194, 1-[5-(5-Chloro-thiophen-2-yl)-isoxazol-3-ylmethyl]-1H-indole-2-carboxylic acid (1-pyrimidin-4-yl-piperidin-4-yl)-amide] |  | 0.095 | 
CC(C)CN1CCC(NC(=O)c2cc3ccccc3n2Cc2cc(-c3ccc(Cl)s3)on2)CC1 [Example 199, 1-[5-(5-Chloro-thiophen-2-yl)-isoxazol-3-ylmethyl]-1H-indole-2-carboxylic acid (1-isobutyl-piperidin-4-yl)-amide] |  | 0.142 | 
CCCN1CCC(NC(=O)c2cc3ccccc3n2Cc2cc(-c3ccc(Cl)s3)on2)CC1 [Example 200] |  | 0.064 | 
COC(=O)N1CCC(NC(=O)c2cc3ccccc3n2Cc2cc(-c3ccc(Cl)s3)on2)CC1 [Example 201, 4-({1-[5-(5-Chloro-thiophen-2-yl)-isoxazol-3-ylmethyl]-1H-indole-2-carbonyl}-amino)-piperidine-1-carboxylic acid methyl ester] | 1.78 |  | 
CC(C)N1CCN(NC(=O)c2cc3ccccc3n2Cc2cc(-c3ccc(Cl)s3)on2)CC1 [Example 202, 1-[5-(5-Chloro-thiophen-2-yl)-isoxazol-3-ylmethyl]-1H-indole-2-carboxylic acid (4-isopropyl-piperazin-1-yl)-amide] | 0.02 |  | 
CCN1CCN(NC(=O)c2cc3ccccc3n2Cc2cc(-c3ccc(Cl)s3)on2)CC1 [Example 203, 1-[5-(5-Chloro-thiophen-2-yl)-isoxazol-3-ylmethyl]-1H-indole-2-carboxylic acid (4-ethyl-piperazin-1-yl)-amide] | 0.028 |  | 
O=C(c1cc2ccccc2n1Cc1cc(-c2ccc(Cl)s2)on1)N(c1ccncc1)C1CCN(c2ccncc2)CC1 [Example 204, 1-[5-(5-Chloro-thiophen-2-yl)-isoxazol-3-ylmethyl]-1H-indole-2-carboxylic acid pyridin-4-yl-(3,4,5,6-tetrahydro-2H-[1,4′]bipyridinyl-4-yl)-amide] |  |  | Ki: 0.074 µM
O=C(c1cc2cc([N+](=O)[O-])ccc2n1Cc1cc(-c2ccc(Cl)s2)on1)N(c1ccncc1)C1CCN(c2ccncc2)CC1 [Example 205, 1-[5-(5-Chloro-thiophen-2-yl)-isoxazol-3-ylmethyl]-5-nitro-1H-indole-2-carboxylic acid pyridin-4-yl-(3,4,5,6-tetrahydro-2H-[1,4′]bipyridinyl-4-yl)-amide] |  |  | Ki: 0.034 µM
N#Cc1c(C(=O)NC2CCN(c3ccncc3)CC2)n(Cc2cc(-c3ccc(Cl)s3)on2)c2ccccc12 [Example 206, 1-[5-(5-Chloro-thiophen-2-yl)-isoxazol-3-ylmethyl]-3-cyano-1H-indole-2-carboxylic acid (3,4,5,6-tetrahydro-2H-[1,4′]bipyridinyl-4-yl)-amide] | 0.012 |  | 
COc1ccc(C#N)c2c1c(C#N)c(C(=O)NC1CCN(C(C)C)CC1)n2Cc1cc(-c2ccc(Cl)s2)on1 [Example 208, 1-[5-(5-Chloro-thiophen-2-yl)-isoxazol-3-ylmethyl]-3,7-dicyano-4-methoxy-1H-indole-2-carboxylic acid (1-isopropyl-piperidin-4-yl)-amide] | 0.001 |  | 
CC(C)N1CCC(NC(=O)c2cc3ccccc3n2Cc2cc3ccc(Cl)cc3c(Cl)n2)CC1 [Example 210, 1-(1,7-Dichloro-isoquinolin-3-ylmethyl)-1H-indole-2-carboxylic acid (1-isopropyl-piperidin-4-yl)-amide] | 0.079 |  | 
